How the values were obtained:
[1] = biological target: Tyrosine-protein kinase Fyn (Homo sapiens) (UniProt P06241); assay: Inhibition of human FYN at 1.82 nM by HotSpot assay relative to control
[2] = biological target: STE20/SPS1-related proline-alanine-rich protein kinase (Homo sapiens) (UniProt Q9UEW8); assay: Inhibition of human STLK3 at 1.82 nM by HotSpot assay relative to control
[3] = biological target: Angiopoietin-1 receptor (Homo sapiens) (UniProt Q02763); assay: Inhibition of human TEK at 1.82 nM by HotSpot assay relative to control
Sequence of Angiopoietin-1 receptor (Homo sapiens) (Q02763 whole entry): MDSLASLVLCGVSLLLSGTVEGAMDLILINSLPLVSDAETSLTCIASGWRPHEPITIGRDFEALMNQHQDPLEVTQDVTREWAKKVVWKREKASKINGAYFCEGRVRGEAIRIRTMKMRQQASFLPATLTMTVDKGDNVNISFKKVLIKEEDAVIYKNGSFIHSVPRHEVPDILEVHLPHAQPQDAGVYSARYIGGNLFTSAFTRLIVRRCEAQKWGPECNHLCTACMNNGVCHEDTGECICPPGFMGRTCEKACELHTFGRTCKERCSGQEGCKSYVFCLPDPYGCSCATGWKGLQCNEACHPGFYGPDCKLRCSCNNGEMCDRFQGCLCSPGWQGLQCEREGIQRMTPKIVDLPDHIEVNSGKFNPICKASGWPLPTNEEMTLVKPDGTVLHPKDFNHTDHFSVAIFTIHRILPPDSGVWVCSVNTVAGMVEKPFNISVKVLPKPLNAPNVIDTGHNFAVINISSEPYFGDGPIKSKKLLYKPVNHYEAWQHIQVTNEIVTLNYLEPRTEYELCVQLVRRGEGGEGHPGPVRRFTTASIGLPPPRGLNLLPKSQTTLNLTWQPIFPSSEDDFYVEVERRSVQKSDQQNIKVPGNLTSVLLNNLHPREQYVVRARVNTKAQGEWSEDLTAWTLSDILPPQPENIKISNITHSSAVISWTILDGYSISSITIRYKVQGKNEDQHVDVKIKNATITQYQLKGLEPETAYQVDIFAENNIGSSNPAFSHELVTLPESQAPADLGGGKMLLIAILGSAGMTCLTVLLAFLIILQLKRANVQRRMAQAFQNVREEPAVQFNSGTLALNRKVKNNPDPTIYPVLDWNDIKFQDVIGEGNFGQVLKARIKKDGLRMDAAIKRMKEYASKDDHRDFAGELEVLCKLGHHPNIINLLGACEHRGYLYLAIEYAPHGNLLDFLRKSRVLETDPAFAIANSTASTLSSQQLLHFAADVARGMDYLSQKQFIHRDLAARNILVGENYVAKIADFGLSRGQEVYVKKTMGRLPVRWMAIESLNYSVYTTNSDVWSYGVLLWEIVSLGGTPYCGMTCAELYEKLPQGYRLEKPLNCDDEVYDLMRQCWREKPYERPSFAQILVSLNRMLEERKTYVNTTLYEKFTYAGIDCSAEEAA

[4] = biological target: Wee1-like protein kinase (Homo sapiens) (UniProt P30291); assay: Inhibition of human WEE1 at 1.82 nM by HotSpot assay relative to control
Sequence of Wee1-like protein kinase (Homo sapiens) (P30291 whole entry, looked up): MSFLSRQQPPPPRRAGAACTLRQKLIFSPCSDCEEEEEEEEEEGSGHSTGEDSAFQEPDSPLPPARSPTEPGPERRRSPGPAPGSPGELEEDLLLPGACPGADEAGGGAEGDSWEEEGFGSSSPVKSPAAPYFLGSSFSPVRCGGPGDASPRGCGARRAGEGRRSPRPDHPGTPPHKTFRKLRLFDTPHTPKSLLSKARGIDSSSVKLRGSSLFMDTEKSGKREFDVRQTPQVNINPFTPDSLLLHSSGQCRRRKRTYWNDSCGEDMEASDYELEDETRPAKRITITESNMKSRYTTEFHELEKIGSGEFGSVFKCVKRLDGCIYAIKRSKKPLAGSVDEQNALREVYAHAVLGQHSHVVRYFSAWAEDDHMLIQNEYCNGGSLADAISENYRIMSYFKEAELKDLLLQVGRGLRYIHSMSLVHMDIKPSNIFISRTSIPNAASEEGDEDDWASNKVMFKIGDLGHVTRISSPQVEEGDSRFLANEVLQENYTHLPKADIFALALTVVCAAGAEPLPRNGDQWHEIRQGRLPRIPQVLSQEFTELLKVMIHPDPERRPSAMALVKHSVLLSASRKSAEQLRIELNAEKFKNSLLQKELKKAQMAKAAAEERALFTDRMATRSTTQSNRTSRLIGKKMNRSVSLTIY

[5] = biological target: BDNF/NT-3 growth factors receptor (Homo sapiens) (UniProt Q16620); assay: Inhibition of human TRKB at 1.82 nM by HotSpot assay relative to control
Sequence of BDNF/NT-3 growth factors receptor (Homo sapiens) (Q16620 32-822 limits assumed): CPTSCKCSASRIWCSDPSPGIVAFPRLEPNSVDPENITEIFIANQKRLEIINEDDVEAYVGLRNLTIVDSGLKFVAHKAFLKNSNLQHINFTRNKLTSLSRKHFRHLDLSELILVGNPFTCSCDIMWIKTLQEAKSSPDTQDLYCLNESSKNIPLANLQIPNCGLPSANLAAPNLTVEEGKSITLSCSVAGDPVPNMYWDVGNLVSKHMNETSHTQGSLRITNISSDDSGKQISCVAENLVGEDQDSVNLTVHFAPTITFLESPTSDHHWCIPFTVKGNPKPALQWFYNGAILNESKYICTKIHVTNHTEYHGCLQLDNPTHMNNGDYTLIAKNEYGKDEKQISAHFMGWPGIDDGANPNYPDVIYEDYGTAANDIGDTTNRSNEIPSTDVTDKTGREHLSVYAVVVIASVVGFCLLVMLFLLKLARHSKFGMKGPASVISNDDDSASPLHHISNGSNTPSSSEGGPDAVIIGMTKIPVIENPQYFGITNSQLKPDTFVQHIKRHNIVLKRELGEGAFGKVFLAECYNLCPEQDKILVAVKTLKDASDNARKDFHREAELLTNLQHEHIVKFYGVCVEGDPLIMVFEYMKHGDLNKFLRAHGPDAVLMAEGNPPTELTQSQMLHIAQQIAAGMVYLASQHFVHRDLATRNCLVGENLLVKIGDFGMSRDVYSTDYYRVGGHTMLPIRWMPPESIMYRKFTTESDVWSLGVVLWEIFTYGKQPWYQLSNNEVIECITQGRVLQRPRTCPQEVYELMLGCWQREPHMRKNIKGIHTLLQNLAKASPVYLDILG

[6] = biological target: T1, Dual specificity tyrosine-phosphorylation-regulated kinase 2 (Homo sapiens) (UniProt Q92630); assay: Inhibition of human DYRK2 at 1.82 nM by HotSpot assay relative to control
T1 sequence (whole entry): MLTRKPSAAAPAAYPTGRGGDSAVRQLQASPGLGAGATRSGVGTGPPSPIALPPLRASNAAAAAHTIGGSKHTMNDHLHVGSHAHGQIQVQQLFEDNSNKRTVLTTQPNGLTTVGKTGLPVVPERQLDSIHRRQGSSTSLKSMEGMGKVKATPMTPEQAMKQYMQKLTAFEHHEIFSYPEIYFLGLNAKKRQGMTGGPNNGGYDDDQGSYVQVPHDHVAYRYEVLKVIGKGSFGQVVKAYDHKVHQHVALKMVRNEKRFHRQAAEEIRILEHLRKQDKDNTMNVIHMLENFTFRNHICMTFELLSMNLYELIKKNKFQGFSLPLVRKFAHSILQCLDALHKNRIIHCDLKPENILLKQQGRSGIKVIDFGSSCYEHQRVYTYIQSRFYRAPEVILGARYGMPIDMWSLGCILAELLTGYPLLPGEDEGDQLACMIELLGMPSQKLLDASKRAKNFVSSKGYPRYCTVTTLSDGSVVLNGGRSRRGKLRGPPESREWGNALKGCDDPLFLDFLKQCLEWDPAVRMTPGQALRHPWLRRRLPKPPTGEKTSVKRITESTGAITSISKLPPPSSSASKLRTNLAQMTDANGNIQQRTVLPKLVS

[7] = biological target: High affinity nerve growth factor receptor (Homo sapiens) (UniProt P04629); assay: Inhibition of human TRKA at 1.82 nM by HotSpot assay relative to control
Sequence of High affinity nerve growth factor receptor (Homo sapiens) (P04629 33-796 limits assumed): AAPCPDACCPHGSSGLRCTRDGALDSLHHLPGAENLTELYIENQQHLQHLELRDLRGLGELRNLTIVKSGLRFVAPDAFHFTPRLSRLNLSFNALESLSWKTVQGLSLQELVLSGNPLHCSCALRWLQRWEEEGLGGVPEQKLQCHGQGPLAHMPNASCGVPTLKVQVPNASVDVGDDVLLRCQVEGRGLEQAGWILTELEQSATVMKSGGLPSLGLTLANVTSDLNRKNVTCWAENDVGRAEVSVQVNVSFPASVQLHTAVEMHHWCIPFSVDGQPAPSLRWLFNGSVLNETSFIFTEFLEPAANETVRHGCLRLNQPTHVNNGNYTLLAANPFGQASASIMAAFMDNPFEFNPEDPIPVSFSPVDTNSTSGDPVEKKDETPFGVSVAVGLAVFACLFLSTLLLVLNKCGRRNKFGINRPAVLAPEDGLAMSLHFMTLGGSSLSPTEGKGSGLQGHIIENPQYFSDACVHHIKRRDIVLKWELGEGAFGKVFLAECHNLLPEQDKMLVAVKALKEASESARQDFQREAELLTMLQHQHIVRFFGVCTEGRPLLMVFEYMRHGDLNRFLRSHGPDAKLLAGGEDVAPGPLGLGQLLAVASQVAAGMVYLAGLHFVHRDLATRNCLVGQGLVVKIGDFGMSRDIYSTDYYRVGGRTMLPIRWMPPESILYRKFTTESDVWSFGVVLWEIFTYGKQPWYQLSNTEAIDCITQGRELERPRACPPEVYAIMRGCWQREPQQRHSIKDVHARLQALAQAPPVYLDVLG

[8] = biological target: Tyrosine-protein kinase Yes (Homo sapiens) (UniProt P07947); assay: Inhibition of human YES1 at 1.82 nM by HotSpot assay relative to control
Sequence of Tyrosine-protein kinase Yes (Homo sapiens) (P07947 2-543 limits assumed): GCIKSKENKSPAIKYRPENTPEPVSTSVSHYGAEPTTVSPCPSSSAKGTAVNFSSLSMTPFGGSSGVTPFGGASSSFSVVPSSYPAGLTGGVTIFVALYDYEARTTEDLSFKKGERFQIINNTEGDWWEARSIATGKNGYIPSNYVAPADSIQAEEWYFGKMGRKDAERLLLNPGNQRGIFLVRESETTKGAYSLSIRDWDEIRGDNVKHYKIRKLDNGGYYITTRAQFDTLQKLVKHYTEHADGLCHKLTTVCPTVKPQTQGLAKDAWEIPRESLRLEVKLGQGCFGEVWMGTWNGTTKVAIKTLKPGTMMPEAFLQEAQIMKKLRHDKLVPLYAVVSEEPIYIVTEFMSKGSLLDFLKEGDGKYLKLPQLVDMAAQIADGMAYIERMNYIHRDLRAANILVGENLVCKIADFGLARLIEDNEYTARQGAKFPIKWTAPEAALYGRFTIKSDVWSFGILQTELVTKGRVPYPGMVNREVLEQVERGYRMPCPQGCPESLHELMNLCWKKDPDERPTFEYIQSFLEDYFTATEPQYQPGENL

[9] = biological target: G protein-coupled receptor kinase 5 (Homo sapiens) (UniProt P34947); assay: Inhibition of human GRK5 at 18.6 nM by HotSpot assay relative to control
Sequence of G protein-coupled receptor kinase 5 (Homo sapiens) (P34947 whole entry, looked up): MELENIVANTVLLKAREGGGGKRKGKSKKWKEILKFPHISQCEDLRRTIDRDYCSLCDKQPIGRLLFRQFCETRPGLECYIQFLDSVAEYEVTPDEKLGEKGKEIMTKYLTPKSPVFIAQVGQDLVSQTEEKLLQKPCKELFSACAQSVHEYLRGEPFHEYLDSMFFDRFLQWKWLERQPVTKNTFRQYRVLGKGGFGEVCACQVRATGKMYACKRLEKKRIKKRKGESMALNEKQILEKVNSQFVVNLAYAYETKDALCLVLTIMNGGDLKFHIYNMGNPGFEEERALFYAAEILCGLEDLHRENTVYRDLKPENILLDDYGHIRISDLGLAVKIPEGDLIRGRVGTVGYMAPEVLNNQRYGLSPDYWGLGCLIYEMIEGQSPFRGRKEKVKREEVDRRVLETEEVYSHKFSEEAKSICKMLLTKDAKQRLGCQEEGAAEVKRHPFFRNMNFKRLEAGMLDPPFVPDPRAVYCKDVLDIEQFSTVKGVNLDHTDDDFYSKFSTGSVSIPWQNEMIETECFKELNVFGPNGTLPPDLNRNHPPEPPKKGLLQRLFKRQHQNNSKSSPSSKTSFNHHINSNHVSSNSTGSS

[10] = biological target: Tyrosine-protein kinase Lyn (Homo sapiens) (UniProt P07948); assay: Inhibition of human LYN B at 18.6 nM by HotSpot assay relative to control
[11] = biological target: Receptor-interacting serine/threonine-protein kinase 2 (Homo sapiens) (UniProt O43353); assay: Inhibition of human RIPK2 at 18.6 nM by HotSpot assay relative to control
Sequence of Receptor-interacting serine/threonine-protein kinase 2 (Homo sapiens) (O43353 whole entry): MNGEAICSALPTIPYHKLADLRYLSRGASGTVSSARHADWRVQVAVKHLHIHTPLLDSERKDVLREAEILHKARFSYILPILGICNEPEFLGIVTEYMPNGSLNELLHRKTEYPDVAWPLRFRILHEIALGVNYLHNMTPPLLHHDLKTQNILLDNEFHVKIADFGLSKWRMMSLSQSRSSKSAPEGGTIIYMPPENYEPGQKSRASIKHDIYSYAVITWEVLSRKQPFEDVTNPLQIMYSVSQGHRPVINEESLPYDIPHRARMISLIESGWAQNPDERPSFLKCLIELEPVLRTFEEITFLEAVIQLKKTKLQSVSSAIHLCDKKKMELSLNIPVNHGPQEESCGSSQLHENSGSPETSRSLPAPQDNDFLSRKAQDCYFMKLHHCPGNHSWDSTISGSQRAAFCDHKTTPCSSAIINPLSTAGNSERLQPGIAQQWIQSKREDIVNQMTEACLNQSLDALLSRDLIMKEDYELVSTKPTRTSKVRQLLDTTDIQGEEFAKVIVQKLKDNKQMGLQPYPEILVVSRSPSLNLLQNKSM

[12] = biological target: T2, Ephrin type-B receptor 3 (Homo sapiens) (UniProt P54753); assay: Inhibition of human EPHB3 at 18.6 nM by HotSpot assay relative to control
T2 sequence (whole entry): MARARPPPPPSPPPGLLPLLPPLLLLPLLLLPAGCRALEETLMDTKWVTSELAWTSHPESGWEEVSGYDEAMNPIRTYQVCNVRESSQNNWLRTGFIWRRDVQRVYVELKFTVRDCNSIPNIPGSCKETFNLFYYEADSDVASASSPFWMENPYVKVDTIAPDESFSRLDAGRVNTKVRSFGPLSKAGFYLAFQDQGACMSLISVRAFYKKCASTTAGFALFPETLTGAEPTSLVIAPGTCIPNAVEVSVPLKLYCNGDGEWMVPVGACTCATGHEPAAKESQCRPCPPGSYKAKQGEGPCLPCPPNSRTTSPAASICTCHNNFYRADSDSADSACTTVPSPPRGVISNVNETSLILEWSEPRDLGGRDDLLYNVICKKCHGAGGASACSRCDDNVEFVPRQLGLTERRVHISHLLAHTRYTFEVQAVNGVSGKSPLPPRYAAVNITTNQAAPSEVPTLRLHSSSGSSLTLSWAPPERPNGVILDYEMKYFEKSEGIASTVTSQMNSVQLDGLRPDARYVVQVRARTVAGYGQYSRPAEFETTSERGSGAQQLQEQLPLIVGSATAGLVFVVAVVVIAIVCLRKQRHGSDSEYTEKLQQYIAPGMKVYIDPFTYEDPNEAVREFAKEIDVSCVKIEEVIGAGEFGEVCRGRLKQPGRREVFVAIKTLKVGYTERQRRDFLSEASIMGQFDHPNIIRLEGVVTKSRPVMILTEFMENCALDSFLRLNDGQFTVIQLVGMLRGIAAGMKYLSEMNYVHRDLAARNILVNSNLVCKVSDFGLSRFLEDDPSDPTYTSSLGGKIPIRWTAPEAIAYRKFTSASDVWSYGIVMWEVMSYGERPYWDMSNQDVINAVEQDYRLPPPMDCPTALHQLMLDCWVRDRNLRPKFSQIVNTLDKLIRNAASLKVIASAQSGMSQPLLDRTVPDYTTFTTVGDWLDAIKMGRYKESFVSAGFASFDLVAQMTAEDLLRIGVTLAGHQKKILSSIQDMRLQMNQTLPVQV

[13] = biological target: T3, 3-phosphoinositide-dependent protein kinase 1 (Homo sapiens) (UniProt O15530); assay: Inhibition of human PDPK1 at 18.6 nM by HotSpot assay relative to control
T3 sequence (whole entry): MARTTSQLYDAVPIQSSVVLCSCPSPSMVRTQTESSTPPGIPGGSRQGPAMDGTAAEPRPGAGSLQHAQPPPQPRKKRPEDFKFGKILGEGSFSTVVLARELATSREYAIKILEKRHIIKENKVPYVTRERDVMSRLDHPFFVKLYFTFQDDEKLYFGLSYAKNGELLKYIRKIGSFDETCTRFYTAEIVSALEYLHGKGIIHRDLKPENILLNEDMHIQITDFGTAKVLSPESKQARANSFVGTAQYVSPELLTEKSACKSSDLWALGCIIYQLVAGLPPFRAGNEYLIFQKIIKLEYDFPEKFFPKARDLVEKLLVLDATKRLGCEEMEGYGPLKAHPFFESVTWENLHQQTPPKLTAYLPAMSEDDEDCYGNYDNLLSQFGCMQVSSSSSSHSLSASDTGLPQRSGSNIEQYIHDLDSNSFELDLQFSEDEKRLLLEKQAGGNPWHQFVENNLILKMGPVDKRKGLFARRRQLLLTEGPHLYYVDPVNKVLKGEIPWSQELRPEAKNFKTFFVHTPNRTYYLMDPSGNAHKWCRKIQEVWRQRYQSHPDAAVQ

Row | Structure (SMILES) | inhibition [1] | inhibition [2] | inhibition [3] | inhibition [4] | inhibition [5] | inhibition [6] | inhibition [7] | inhibition [8] | inhibition [9] | inhibition [10] | inhibition [11] | inhibition [12] | inhibition [13]
1 | C[C@@]1(C(=O)Nc2ccc(F)nc2)CCCN1c1nc(Nc2cc(C3CC3)n[nH]2)c2cccn2n1 | -6.23% | -5.74% | 4% | 1.94% | 69.6% | 0% | 21.1% | 5.36% |  |  |  |  | 
2 | C[C@]1(O)C[C@@H](c2nc(-c3ccc4ccc(-c5ccccc5)nc4c3)c3c(N)nccn32)C1 |  |  |  |  |  |  |  |  | -6.77% | 4.09% | 12.1% | -2.53% | -0.41%
